Values of other authors as cited in patent publication US7253193B2, “Cyanoguanidine prodrugs” (LEO Pharma A/S, priority 2002, dated 2007).

What was measured:
[1] = test system: human lung and breast cancer cell lines
[2] = test system: human lung cancer tumour xenograft
human tumour cells = conditions: also against tumour cells resistant to conventional anticancer drugs such as paclitaxel

SMILES: N#CNC(=Nc1ccncc1)NCCCCCCOc1ccc(Cl)cc1 [N-(6-(4-chlorophenoxy)hexyl)-N′-cyano-N″-(4-pyridyl)guanidine]
- antiproliferative activity in vitro [1]: high antiproliferative activity in vitro
- antitumour activity in the nude mouse model [2]: potent antitumour activity
- antitumour activity in vivo (human tumour cells): substantial antitumour activity
